# PMC7449217, “The FDA-Approved Drug Nelfinavir Inhibits Lytic Cell-Free but Not Cell-Associated Nonlytic Transmission of Human Adenovirus” (Antimicrobial Agents and Chemotherapy, 2020)
# Structures can show the parent of a compound that is named as a salt. Where two headings read alike, the source gives them in different places.
# Assays:
# uninfected A549 cells = test: cellular impedance measurement (xCELLigence), nelfinavir toxicity; type: cell-based, human
# Experimental: (§1) Impedance-based assays were performed using the xCELLigence system (Roche Applied Science and ACEA Biosciences) as described previously ([152], [153]), according to the manufacturer’s instructions ([177]), in a cell culture environment (37°C, 5% CO2, and 95% humidity) in duplicates. The 16-well E plates have a gold-plated sensor array embedded in their glass bottom by which the electrical impedance across each well bottom is measured. The impedance per well, termed the cell index (CI), is recorded as a dimensionless quantity. The background CI was assessed following the addition of 50 μl supplemented medium to each well and equilibration in the incubation environment. After 30 min of equilibration, 9,000 A549 cells in 50 μl supplemented medium were added per well, and measurement was started.
# For the quantification of nelfinavir toxicity, 50 μl of the supernatant was removed 18 h later and replaced with 2-fold-concentrated nelfinavir or DMSO solvent as the control dilution in supplemented medium (final nelfinavir concentration of 0.4 to 100 μM in 100 μl/well). The control was supplemented medium. Impedance was recorded every 15 min over 5 days. The TC50 indicates the concentration of nelfinavir that caused a 50% impedance reduction compared to the solvent-treated cells. The TC50 was calculated by nonlinear regression of the solvent-normalized CI over the concentration of nelfinavir.
# CMT-93 cells = test: TC50, number of nuclei in noninfected treated cells; type: cell-based, mouse; settings: noninfected CMT-93, nuclei, 4 dpi
# Experimental: Per 96-well plate, 15,000 A549 cells, 10,000 HeLa cells, 30,000 HBECs, 30,000 HCE cells, or 30,000 CMT-93 cells were seeded in 100 μl of the respective supplemented medium and allowed to settle for 1 h at room temperature (RT) prior to cell culture incubation at 37°C with 5% CO2 and 95% humidity. The following day, the medium was replaced with 50 μl of the respective virus stock dilution giving rise to 5 to 50 plaques per 96-well plate. Fifty microliters of nelfinavir to obtain a 0.1 to 50 μM final concentration or the DMSO solvent control was also added, both in supplemented medium. For each experiment, a noninfected, treated control was performed. […] Plates were imaged on either an IXM-XL or an IXM-C automated high-throughput fluorescence microscope (Molecular Devices, San Jose, CA, USA) using a 4× objective in wide-field mode. Hoechst staining was recorded in the 4′,6-diamidino-2-phenylindole (DAPI) channel, the fluorescein isothiocyanate (FITC)/GFP channel was acquired for viral GFP, and the tetramethyl rhodamine isothiocyanate (TRITC)/Texas Red channel was acquired for hexon immunofluorescence staining.
# The infection phenotype for each well was quantified using Plaque2.0 ([101]). The number of plaques was determined based on the infection signal (viral GFP or hexon immunofluorescence staining). […] The mean TI50 was calculated as the EC50/TC50 ratio of the means. […]
# HAdV-C2-dE3B-GFP = test: microbe, parasite or virus in culture; type: cell-based, human adenovirus; settings: for EC50: Human adenovirus sp.
# Experimental: Per 96-well plate, 15,000 A549 cells, 10,000 HeLa cells, 30,000 HBECs, 30,000 HCE cells, or 30,000 CMT-93 cells were seeded in 100 μl of the respective supplemented medium and allowed to settle for 1 h at room temperature (RT) prior to cell culture incubation at 37°C with 5% CO2 and 95% humidity. The following day, the medium was replaced with 50 μl of the respective virus stock dilution giving rise to 5 to 50 plaques per 96-well plate. Fifty microliters of nelfinavir to obtain a 0.1 to 50 μM final concentration or the DMSO solvent control was also added, both in supplemented medium. For each experiment, a noninfected, treated control was performed. For uphill plaque assays, the medium volume was increased to 150 μl with identical virus and drug concentrations. For wash-in/washout experiments, the virus was incubated on cells in supplemented medium for 1 h at 37°C, cells were washed with PBS, and a 100-μl drug dilution in supplemented medium was added. All experiments were performed in four technical replicates or as indicated. Cells were incubated under standard cell culture conditions. At the indicated times postinfection, the cells were fixed, and the nuclei were stained for 1 h at RT by the addition of 33 μl 16% (wt/vol) paraformaldehyde (PFA) and 4 μg/ml Hoechst 33342 (Sigma-Aldrich, St. Louis, MO, USA) in PBS. Cells were washed three times with PBS and stored in PBS supplemented with 0.02% N3 for infections with viruses harboring a GFP transgene. For wild-type (wt) viruses, cells were quenched in PBS supplemented with 50 mM NH4Cl, permeabilized using 0.2% (vol/vol) Triton X-100 in PBS, and blocked with 0.5% (wt/vol) bovine serum albumin (BSA) in PBS. Cells were incubated with 381.7 ng/ml mouse anti-HAdV hexon protein antibody (Mab8052; Sigma-Aldrich, St. Louis, MO, USA) and subsequently stained using 2 μg/ml goat anti-mouse-Alexa Fluor 594 (catalog number A21203 or A32742; Thermo Fisher Scientific, Waltham, MA, USA). Plates were imaged on either an IXM-XL or an IXM-C automated high-throughput fluorescence microscope (Molecular Devices, San Jose, CA, USA) using a 4× objective in wide-field mode. Hoechst staining was recorded in the 4′,6-diamidino-2-phenylindole (DAPI) channel, the fluorescein isothiocyanate (FITC)/GFP channel was acquired for viral GFP, and the tetramethyl rhodamine isothiocyanate (TRITC)/Texas Red channel was acquired for hexon immunofluorescence staining.
# The infection phenotype for each well was quantified using Plaque2.0 ([101]). The number of plaques was determined based on the infection signal (viral GFP or hexon immunofluorescence staining). Nuclei stained with Hoechst were segmented by using CellProfiler ([178]). Infected nuclei were classified based on the median infection signal per nucleus in CellProfiler. Data were plotted, and the EC50 (infected and treated cells), the TC50 (noninfected, treated cells), as well as the corresponding standard errors (SE) were determined using curve fitting in GraphPad (version 8.1.2; GraphPad Software, Inc.) using three-parameter inhibitor concentration-versus-response nonlinear regression. The mean TI50 was calculated as the […] ratio of the means. The TI50 SE was calculated by error propagation.
# [1] = test system: HAdV-C2-dE3B-GFP-infected A549 cells; test: cellular impedance measurement (xCELLigence) of infected A549 cells, delay of cell death; type: cell-based, human; settings: 100 μM nelfinavir
# Experimental: as §1
# For the quantification of nelfinavir effects on the cytopathogenicity of HAdV-C2-dE3B-GFP compared to HAdV-C2-dE3B-GFP-dADP infection, 50 μl of the supernatant was removed 18 h later and replaced with nelfinavir- and virus-supplemented medium. […] The delay of infection-induced cytotoxicity was calculated as the time point at which the CI of the infected cells had decreased by 50% relative to its maximum. […]
smiles,measurement,setting,value
"Cc1c(O)cccc1C(=O)N[C@@H](CSc1ccccc1)[C@H](O)CN1C[C@H]2CCCC[C@H]2C[C@H]1C(=O)NC(C)(C)C [Nelfinavir, Nelfinavir mesylate]",toxicity in cell index (CI) profiles,"uninfected A549 cells; uninfected A549, up to 6.25 µM, more than 4 days of incubation",little signs of toxicity
same,median toxicity TC50 (cell impedance),"uninfected A549 cells; uninfected A549 cells, incubation up to 115 h, xCELLigence",25700 nM
same,TC50,CMT-93 cells; line MAdV-1-pIX-FS2A-GFP,21290 nM
same,TC50,CMT-93 cells; line MAdV-3-pIX-FS2A-GFP,26070 nM
same,TI50 (TC50/IC50),"HAdV-C2-dE3B-GFP; HAdV-C2-dE3B-GFP in A549, 3 dpi, GFP",66.80
same,TI50 (TC50/IC50),"HAdV-C2-dE3B-GFP; HAdV-C2-dE3B-GFP in A549, 3 dpi, GFP, listed as nelfinavir",66.8
same,TI50 (TC50/IC50),"HAdV-C2-dE3B-GFP; HAdV-C2-dE3B-GFP in A549, 4 dpi, GFP",29.43
same,TI50 (TC50/IC50),"HAdV-C2-dE3B-GFP; HAdV-C2-dE3B-GFP in A549, 4 dpi, Hexon",29.87
same,EC50,"HAdV-C2-dE3B-GFP; A549, HAdV-C2-dE3B-GFP in A549, fixation 3 dpi (72 hpi), read-out GFP, plaque numbers",220 nM
same,EC50,"HAdV-C2-dE3B-GFP; A549, HAdV-C2-dE3B-GFP in A549, fixation 4 dpi, read-out GFP, plaque numbers",440 nM
same,EC50,"HAdV-C2-dE3B-GFP; A549, HAdV-C2-dE3B-GFP in A549, fixation 4 dpi, read-out Hexon, plaque numbers",430 nM
same,EC50,"HAdV-C2-dE3B-GFP; A549, read-out: EC50 of fluorescent-plaque formation, HAdV-C2-dE3B-GFP, A549 cells, 82 hpi, plaque numbers",370 nM
same,median therapeutic index (TI50),"HAdV-C2-dE3B-GFP; ratio TC50 (nuclei) / EC50 (plaques), A549 cells, 82 hpi",27.1
same,toxicity in impedance measurement of infected cells,[1],toxic
